From patent EP2604265A1, “P2x7 antagonists as frontline or adjunctive treatment against status epilepticus” (Royal College of Surgeons in Ireland (RCSI), priority 2011, dated 2013)

Experiments:
Adult male C57BL/6 mice [1] = experiment: Intra-amygdala KA-induced SE in mice, EEG, drug i.c.v. immediately prior to KA; type: in vivo; conditions: i.c.v. co-injection immediately prior to intra-amygdala KA; vs vehicle (antibody vs control IgG); lorazepam at 40 min
Experimental: (§1) Adult male C57BL/6 mice (20-25 g) were obtained from Harlan UK (Blackthorn, UK). Mice were first anesthetized using isoflurane (3-5%) and maintained normothermic by means of a feedback-controlled heat blanket (Harvard Apparatus Ltd, Kent, UK). Mice were next placed in a stereotaxic frame and three partial craniectomies performed to affix cortical skull-mounted EEG electrodes (Bilaney Consultants Ltd, Sevenoaks, UK). EEG was recorded using a Grass Comet XL digital EEG (Medivent Ltd, Lucan, Ireland). A guide cannula was affixed (coordinates from Bregma: AP = 0.94; L = 2.85 mm) and the assembly fixed in place with dental cement. Anesthesia was then discontinued and freely moving mice were placed inside a clear perspex recording chamber. EEG recordings were commenced and after establishing baseline EEG for a few minutes, an injection cannula was lowered through the guide cannula for injection of kainic acid (KA) (Ocean Produce International, Nova Scotia, Canada) into the basolateral amygdala nucleus (0.3 µg in 0.2 µl phosphate-buffered saline). Non-seizure control mice underwent the same surgical procedure but received 0.2 µl intra-amygdala vehicle. Mice were killed at different time-points (1, 4, 8 or 24 h) later and perfused with saline to remove intravascular blood components. Brains were either flash-frozen whole in 2-methylbutane at […] or perfused with 4% PFA for histopathology, or dissected on ice to obtain whole hippocampus or microdissected to obtain the different hippocampal subfields (CA1, DG and CA3).
Digitized EEG recordings were analyzed off-line using manual assessment and automated software. […] The duration of high-frequency (>5 Hz) high-amplitude (>2× baseline) polyspike discharges of ≥5 s duration (HAHFDs) was counted by a reviewer blind to treatment. Further EEG analysis was performed by uploading EEG into Labchart7 software (ADInstruments) to calculate the power spectral density (total power, a measure of the input signal's power (amplitude) over frequency) EEG spectrogram (spectral power against frequency and time).
All the following drugs were purchased from Sigma-Aldrich Ireland (Arklow, Ireland) and delivered by intracerebroventricular (i.c.v.) microinjection in 2 µl volume unless otherwise specified: Adenosine 5'-triphosphate (ATP) at 100 µM, Uridine-5'-triphosphate (UTP) at 100 µM, Uridine-5'-diphosphate (UDP) at 100 µM, 2-chloro-N6-cyclopentyladenosine (CCPA) 300 nM, Pyridoxal-phosphate-6-azophenyl-2,4-disulfonate (PPADS) at 50 µM, α,β- methylene- adenosine-5-triphosphate (α,β-meATP) at 0.1 nmol, 3-O-(4-benzoyl)benzyl-ATP (Bz-ATP) at 300 µM, Brillant Blue G (BBG) at 30 nM.
Lorazepam (Ativan®, Wyeth, Taplow, U.K.) (6 mg/kg) was administered intraperitoneally (i.p.) at 40 or 60 min after KA.
Next, a model of focal-onset SE was used to evaluate the contributions of ATP-gated receptors in vivo. Mice received intra-amygdala microinjection of KA to induce SE (Fig. 2C). […] The electroencephalogram (EEG) was recorded by using cranial electrodes (lower part of Fig. 2C). Seizures were curtailed after 40 min by the injection of lorazepam to minimize morbidity and mortality.

neonatal seizures = conditions: in vivo; cited from earlier work
hippocampal neurons = experiment: Luciferine-luciferase luminescence assay of extracellular ATP release; type: cell-based, mouse; conditions: primary cultures; glutamate 100 µM; NEM 500 µM pre-treatment
Experimental: Hippocampal neurons were prepared as described previously (Diaz-Hernandez et al., 2008). Briefly, hippocampi were obtained from E17 mouse embryos and, after dissection and washing three times in Ca^2+/Mg^2+-free HBSS, tissue was digested in the same solution with 0.25% trypsin for 15 min at 37°C. Hippocampi were then washed three times in Ca^2+/Mg^2+-free HBSS and dissociated with a firepolished Pasteur pipette. Cells were counted, resuspended in plating medium (MEM, 10% fetal bovine serum, 0.6% glucose) and plated at a density of 5,000 cells/cm^2 on poly-L-lysine coated coverslips (1 mg/ml). After plating, neurons were cultured for 24-72 h in neuronal culture medium (Neurobasal, B-27, glutamax-I). For biochemical experiments, hippocampal neurons were plated on polylysine-coated (1 mg/ml) 60-mm plates at a density of 200,000 cells/cm^2, and cultured for 72 h in neuronal culture medium. AraC was added at a final concentration of 5 µM after 2 days in culture. Extracellular ATP concentration was measured as previously described (Diez-Zaera et al., 2011). Neurons were grown in 6-well plates at a density of 200,000 cells/cm^2. […] In some cases, ATP release was also measured in the presence of A-438079 (1 µM). ATP concentration was determined by comparison with a calibration curve generated with ATP standards diluted in the same buffer as the samples.

rat models = conditions: mifepristone before or after the onset of SE; cited from earlier work
Adult male C57BL/6 mice [2] = experiment: Histopathology of ipsilateral hippocampal CA3 after SE (FJB and NeuN counts); type: in vivo; conditions: 24 h after SE; drug given prior to SE; vs vehicle
Experimental: as §1
Flash-frozen brains in 2-methylbutane were sectioned at -20°C on a Leica cryostat and 12 µm sections collected at the level of dorsal hippocampus (-1.8 mm and - 2.9 mm from Bregma according to a mouse stereotaxic atlas (Paxinos and Franklin, 2001). Neuronal death was assessed using Fluoro-Jade B (FJB) staining, as previously described (Engel et al., 2010; Murphy et al., 2010). Briefly, sections were air-dried and post-fixed in formalin followed by hydrating through graded alcohols. Sections were then rinsed in distilled water and transferred to 0.006% potassium permanganate solution for 15 min. Sections were rinsed again and transferred to a 0.001% FJB solution according to manufacturer's recommendations (Chemicon Europe Ltd, Chandlers Ford, UK). After staining, sections were mounted in DPX (Sigma-Aldrich). For NeuN immunohistochemistry, sections were fixed and permeabilized, blocked in goat serum and incubated overnight with anti-NeuN antibodies (Millipore Ireland B.V., Tullagreen, Ireland) followed by incubation with goat anti-rabbit IgG antibodies coupled to AlexaFluor 568 (BioSciences Limited, Dun Laoghaire, Ireland). Sections were examined using a Nikon 2000s epifluorescence microscope under Ex/Em wavelengths of 472/520 nm (green) and 540 to 580/600 to 660 nm (red) and images captured using a Hamamatsu Orca 285 camera. Cell counts were the average of two adjacent sections for the CA3 subfield under 40x lens magnification by an observer blinded to treatment.

[3] = in vivo; cited from earlier work
Adult male C57BL/6 mice [4] = experiment: Refractory SE model in mice, drugs given 60 min post-KA, EEG during the next hour; type: in vivo
Experimental: as §1
Digitized EEG recordings were analyzed off-line using manual assessment and automated software. The occurrence of high amplitude high frequency spiking during seizures is synonymous with injury-causing electrographic seizures during SE (also termed type IV electrographic seizures) (Lowenstein et al., 1991; Henshall et al., 2000). The duration of high-frequency (>5 Hz) high-amplitude (>2× baseline) polyspike discharges of ≥5 s duration (HAHFDs) was counted by a reviewer blind to treatment. Further EEG analysis was performed by uploading EEG into Labchart7 software (ADInstruments) to calculate the power spectral density (total power, a measure of the input signal's power (amplitude) over frequency) EEG spectrogram (spectral power against frequency and time).
A-438079 (3-[[5-(2,3-Dichlorophenyl)-1H-tetrazol-1-yl]methyl]pyridine hydrochloride) (50 µM) was from Tocris Biosciences (Bristol, U.K.) and the P2X7R specific antibody was from Alomone Labs (APR-008, Alomone Labs, Ltd, Jerusalem, Israel) and injected at 0.7 mg/ml. Lorazepam (Ativan®, Wyeth, Taplow, U.K.) (6 mg/kg) was administered intraperitoneally (i.p.) at 40 or 60 min after KA.
To model refractory SE, seizures were allowed to continue beyond the normal time when lorazepam is given (40 min) and instead the effects of drugs were recorded 60 min post-KA on the EEG during the next hour.

Structure (SMILES): O=c1ccn([C@@H]2O[C@H](COP(=O)(O)OP(=O)(O)O)[C@@H](O)[C@H]2O)c(=O)[nH]1 [UDP, Uridine-5'-diphosphate]
- seizure time during SE (duration of HAHFDs) (Adult male C57BL/6 mice [1]): no differences in seizure time

Structure (SMILES): CCC1(c2ccccc2)C(=O)NC(=O)NC1=O [phenobarbitone]
- cases in which neonatal seizures are not stopped (neonatal seizures): over 50%

Structure (SMILES): N[C@@H](CCC(=O)O)C(=O)O [glutamate]
- ATP release from hippocampal neurons (hippocampal neurons): induced the rapid release of ATP

Structure (SMILES): OC[C@H]1O[C@@H](n2cnc3c(NC4CCCC4)nc(Cl)nc32)[C@H](O)[C@@H]1O [CCPA, 2-chloro-N6-cyclopentyladenosine]
- seizure time during SE (duration of HAHFDs) (Adult male C57BL/6 mice [1]): significantly reduced

Structure (SMILES): CC#C[C@]1(O)CC[C@H]2[C@@H]3CCC4=CC(=O)CCC4=C3[C@@H](c3ccc(N(C)C)cc3)C[C@@]21C [mifepristone]
- efficiency of diazepam (rat models): increases efficiency of diazepam

Structure (SMILES): O=c1ccn([C@@H]2O[C@H](COP(=O)(O)OP(=O)(O)OP(=O)(O)O)[C@@H](O)[C@H]2O)c(=O)[nH]1 [UTP, Uridine-5'-triphosphate]
- seizure time during SE (duration of HAHFDs) (Adult male C57BL/6 mice [1]): no differences in seizure time

Structure (SMILES): Nc1ncnc2c1ncn2[C@@H]1O[C@H](COP(=O)(O)OP(=O)(O)OP(=O)(O)O)[C@@H](OC(=O)c2ccc(C(=O)c3ccccc3)cc2)[C@H]1O [BzATP, 3-O-(4-benzoyl)benzyl-ATP]
- seizure time during SE (duration of HAHFDs) (Adult male C57BL/6 mice [1]): significant increase of seizure time

Structure (SMILES): Nc1ncnc2c1ncn2[C@@H]1O[C@H](COP(=O)(O)OP(=O)(O)OP(=O)(O)O)[C@@H](O)[C@H]1O [ATP, Adenosine 5'-triphosphate]
- seizure time during SE (duration of HAHFDs) (Adult male C57BL/6 mice [1]): significantly increased

Structure (SMILES): Cc1nc(N=Nc2ccc(S(=O)(=O)O)cc2S(=O)(=O)O)c(COP(=O)(O)O)c(C=O)c1O [PPADS, Pyridoxal-phosphate-6-azophenyl-2,4-disulfonate]
- Counts of surviving CA3 neurons (NeuN) (Adult male C57BL/6 mice [2]): not protective
- FJB-positive cells within the CA3 subfield (neuronal death) (Adult male C57BL/6 mice [2]): did not afford protection
- seizure time during SE (duration of HAHFDs) (Adult male C57BL/6 mice [1]): only a weak, non-significant effect

Structure (SMILES): O=C1Nc2ccc(Cl)cc2C(c2ccccc2Cl)=NC1O (stereo not drawn) [lorazepam, Lorazepam]
- duration of action [3]: 2 to 8 h
- total seizure time (duration of HAHFDs) (Adult male C57BL/6 mice [4]; given 60 min after KA, 60 min recording, vs vehicle): failed to significantly reduce
- total seizure power (total EEG power) (Adult male C57BL/6 mice [4]; given 60 min after KA, vs vehicle): significant reduction
- mice continued in SE (Adult male C57BL/6 mice [4]; given alone 60 min after KA, number of mice / group): 4/7
- reduction in power (Adult male C57BL/6 mice [4]; total power analysis, Fig. 9C, given 60 min after KA, compared to Veh): ~50%

Structure (SMILES): CCN1C(=O)C=CC1=O [NEM, N-Ethylmaleimide]
- ATP release from hippocampal neurons (hippocampal neurons): ATP release was blocked

Structure (SMILES): Nc1ncnc2c1ncn2C1OC(COP(=O)(O)CP(=O)(O)OP(=O)(O)O)C(O)C1O (stereo not drawn) [α/β-methylATP, α,β-methylene-adenosine-5-triphosphate]
- seizure time during SE (duration of HAHFDs) (Adult male C57BL/6 mice [1]): no differences in seizure time
